Experiments:
Assay type in all cases: cell-based, Sprague-Dawley rats
[1] = tested on: CA1 PCs in rat hippocampal slices; test: Ex vivo eCB / S-eCB mobilization protocol: eIPSC amplitudes by whole-cell voltage-clamp
Description: To test the acute effect of AβO on hippocampal S-eCB mobilization, hippocampal slices from Sprague-Dawley rats (SD, 2 to 3 weeks old, DaeHan Biolink, Co., Ltd., Korea) were used. Male and female rats were used in all in vitro experiments. To test the chronic effect of AβO on hippocampus-dependent memory impairments caused by amyloidosis, the 5XFAD mouse model (6 to 7 months old, #34840-JAX, Jackson Laboratory, USA), which is a mouse model of Alzheimer's disease that mimics AβO depositions, was used. C57BL/6 mice (6 to 7 months old, KOATECH, Korea) were used as wild type (WT) control mice for 5XFAD mice. Male 5XFAD and C57BL/6 mice were used for all in vivo behavioral experiments. The 5XFAD mouse genotypes were identified by polymerase chain reaction (PCR) using DNA extracted from the tails of the mice. All animal-related procedures followed the guidelines of the Institutional Animal Care and Use Committee of Korea University (guidelines for SD rats: KUIACUC-2017-103, guidelines for C57BL/6 and 5XFAD mice: KUIACUC-2019-0068).
(§1) Soluble AβO was prepared according to a previous study (BMC Biol. 2020; 18(1):7). Specifically, Aβ1-42 (Aβ) and a scrambled form of Aβ as a control peptide were purchased in powder form. Aβ and scrambled Aβ were dissolved for monomerization in 1,1,1,3,3,3-hexafluoro-2-propanol (HFIP, Sigma Aldrich, USA) at a final concentration of 1 mM, and the solution was incubated for 90 minutes. After the HFIP was evaporated, the remaining thin and clear film of Aβ or scrambled Aβ was dissolved in dimethyl sulfoxide (DMSO, Sigma Aldrich, USA) to prepare 5 mM Aβ or scrambled Aβ stocks, which were aliquoted and frozen at −20° C. Aβ or scrambled Aβ stocks were thawed and diluted to 100 μM in artificial cerebrospinal fluid (ACSF). Thereafter, Aβ or scrambled Aβ stocks were incubated for oligomerization for 18 hours. The final AβO or scrambled AβO stock solution was diluted to a final concentration of 200 nM in 31.2 ml of ACSF, and rat hippocampal slices were treated with the stock solution for 20 minutes in a recovery chamber before measurement of brain signals. In control experiments for normal brain conditions using a vehicle, rat hippocampal slices were treated with 0.004% DMSO in ACSF.
(§2) The brains of SD rats were isolated following decapitation under isoflurane-induced anesthesia and transferred into ice-cold ACSF containing 126 mM NaCl, […], 1.25 mM NaH2PO4, 2 mM MgSO4, 2 mM CaCl2), 25 mM NaHCO3, and 10 mM glucose (pH 7.2 to 7.4). The ACSF was continuously oxygenated with 95% O2/5% CO2. Horizontal hippocampal slices (350 μm thickness) were obtained using a vibratome (VT1000S, Leica Biosystems, Germany) and immediately incubated at room temperature in a submerged chamber perfused with oxygenated ACSF for at least 1 hour.
To quantify eCB mobilization, the changes in eCB mobilization-induced Schaffer collateral (SC) nerve bundle stimulation-evoked inhibitory postsynaptic current (eIPSC) amplitudes were measured in CA1 PCs through the whole-cell voltage-clamp technique. The whole-cell voltage-clamp technique in CA1 PCs was performed using a MultiClamp 700B amplifier (Molecular Devices, USA) under an infrared differential interference contrast video microscope (BW51W, Olympus, Japan), using a borosilicate electrode (tip resistance: 4 to 8 MΩ) that was filled with an intracellular solution containing 145 mM CsCl, 10 mM HEPES, 2 mM EGTA, 4 mM QX-314, 4 mM Mg-ATP, 0.4 mM […], pH 7.2 to 7.3, and 270 to 280 mOsm/L. To record eIPSCs in the CA1 PCs, a stimulating electrode (A-M Systems, USA) was placed in a stratum radiatum to stimulate the SC pathway that carries CA3 PC axons. Electrical stimulation pulses of 200 to 400 μA amplitudes (20 to 40 μs) were generated using a constant current stimulator (model DS3, Digitimer Ltd., UK). eIPSCs were recorded in CA PCs every 1 second while maintaining the membrane potential at −70 mV.

[2] = tested on: hippocampal CA3-CA1 excitatory synapses; test: S-eCB mobilization induced spike timing-dependent potentiation (tLTP) protocol, EPSP slope
Protocol: as §1, §2

PLCβ1 = test: Western blot of PLCβ1 in rat hippocampal slices; conditions: AβO-treated rat hippocampal slices
Protocol: as §1, with “The final AβO or scrambled AβO stock solution was diluted to a final concentration of 200 nM in 31.2 ml of ACSF, and rat hippocampal slices were treated with the stock solution for 20 minutes in a recovery chamber before measurement of brain signals. In control experiments for normal brain conditions using a vehicle, rat hippocampal slices were treated with 0.004% DMSO in ACSF.” left out
Hippocampal PLCβ1 of SD rats and C57BL/6 or 5XFAD mice were prepared from homogenized hippocampi dissolved in 200 μL of RIPA buffer (Bio-Rad, USA), and were resolved on non-reducing 10% tris-glycine-sodium dodecyl sulfate-polyacrylamide gel electrophoresis (SDS-PAGE) gels (Bio-Rad, USA) using 4×Laemmli sample buffers (Bio-Rad, USA). […] Immunoreactivity was confirmed with enhanced chemiluminescence (Bio-Rad, USA) using a Fluorchem E system (ProteinSimple, USA) and analyzed with ImageJ software. […]

[3] = DMSO-treated rat hippocampal slices, D-AP5 50 μM or AM251 3 μM

N[C@H](C(=O)O)c1cc(O)cc(O)c1 [DHPG, (S)-3,5-dihydroxyphenylglycine]
first ten eIPSC amplitudes as % of the mean eIPSC amplitude measured at the baseline before the DHPG puff ([1]; DHPG (50 μM) puff alone, rat hippocampal slices, mean±SEM): 79±7%
eIPSC amplitude as % of the baseline eIPSC amplitude (S-eCB mobilization) ([1]; DHPG puff paired with 60-s-long postsynaptic neural spike trains at 1 Hz, DMSO-treated rat hippocampal slices, mean±SEM): 62±4%

N[C@H](CCCP(=O)(O)O)C(=O)O [D-AP5, D-2-amino-5-phosphonovaleric acid]
mGluR5-mediated LTD in the presence of antagonist [2, 3]: induced in both the test and control pathways
tLTP induction (EPSP slope, test pathway), effect of antagonist [2, 3]: completely blocked

Cc1c(C(=O)NN2CCCCC2)nn(-c2ccc(Cl)cc2Cl)c1-c1ccc(I)cc1 [AM251]
effect on the DHPG-induced decrease of eIPSC amplitude (eCB mobilization) ([1]; AM251 3 μM, DHPG puff alone): blocked the decrease in amplitude

Cc1cccc(C#Cc2ccccc2)n1 [MPEP, 2-methyl-6-(phenylethynyl) pyridine]
eIPSC amplitudes following DHPG puff during 1 Hz neural spikes in the presence of mGluR5 antagonist ([1]; MPEP 10 μM, DMSO-treated, AβO-treated or scrambled AβO-treated rat hippocampal slices): did not significantly change

COc1ccc2c(c1)CC[C@@H]1[C@@H]2CC[C@]2(C)[C@@H](NCCCCCCN3C(=O)C=CC3=O)CC[C@@H]12 [U73122]
synergistic enhancement in the suppression of eIPSC amplitudes (S-eCB mobilization), effect of PLCβ blocker ([1]; U73122 5 μM, DMSO-treated rat hippocampal slices, similar in AβO- and scrambled AβO-treated slices): completely blocked

AβO: soluble amyloid beta oligomer prepared from Aβ1-42 peptide powder (Bachem)
protein expression levels of PLCβ1 compared to DMSO-treated slices (PLCβ1): remarkably decreased
eIPSC amplitudes / suppression of eIPSC amplitudes following DHPG puff during 1 Hz neural spikes in peptide-treated slices ([1]; slices treated with 200 nM peptide for 20 minutes, in the presence of LY367385 100 μM): completely blocked
mGluR-LTD in the control pathway ([2]; AβO-treated compared to DMSO-treated rat hippocampal slices): not affected
induction of tLTP in the test pathway ([2]; AβO-treated rat hippocampal slices): completely blocked

Cc1cc(C(=O)O)ccc1[C@H](N)C(=O)O [LY367385]
eIPSC amplitudes following 60-s-long DHPG puff during 1 Hz neural spikes in the presence of mGluR1 antagonist ([1]; LY367385 100 μM, DMSO-treated rat hippocampal slices): decreased
